Reference: patent US7838515B2, “Formulations of quaternary ammonium neuromuscular blocking agents” (Lyotropic Therapeutics, Inc., priority 2005, dated 2010)
Read-outs that look alike come from different tables or passages of the source. One block for each compound: values may come before it.

Assays:
[1] = cited from earlier work
[2] = HPLC stability of vecuronium bromide solutions with anionic additives (Example 1); assay type: physicochemical
Description: HPLC System was a Shimadzu VP Series that consists of the following components: SPD-M10A—Diode Array Detector; SIL-10AD—Autosampler; LC-10AT—Pump; SCL-10A—Controller; and Shimadzu EZ Start Version 7.2 SP 1 Revision B—Software.
In this Example a number of anionic compounds, with various pKa's and carbon numbers, were compared for their ability to stabilize vecuronium in solution.
The following chart gives the compositions that were prepared and examined by HPLC for stability over time. Each sample contained approximately 1 mg/mL vecuronium bromide. […] All numerical entries in the chart are actual recorded weights in grams: […]

twitch response = settings: 0.08 to 0.1 mg/Kg, balanced anesthesia; cited from earlier work
[3] = Cubic phase-water partitioning of vecuronium (HPLC); assay type: physicochemical
Text: It is this hydrophobic milieu that is central to the invention, in limiting the contact between water and the labile group(s) of the drug.

[4] = Shelf-life of vecuronium bromide control solutions (HPLC, 15% potency lost); assay type: physicochemical; settings: for shelf-life of solution: 1 mg/ml in water, point at which 15% of potency is lost
Text: In the Examples below, where HPLC assay results for vecuronium are reported, the following gives the parameters of the HPLC measurement. HPLC System was a Shimadzu VP Series that consists of the following components: SPD-M10A—Diode Array Detector; SIL-10AD—Autosampler; LC-10AT—Pump; SCL-10A—Controller; and Shimadzu EZ Start Version 7.2 SP 1 Revision B—Software. Chromatographic Parameters: Mobile Phase—60% Acetonitrile, 25% Methanol, 15% 0.1M TMAH (pH=6.5); Column—25 cm×4.6 mm Phenomenex Luna C18 5 μm; Wavelength—210 nm; Injection Volume—5 μL; Flow Rate—1.0 mL/min; Standard Preparation—1 mg/mL in 0.001N HCl/Methanol; and Sample Preparation—1 mg/mL—Undiluted.
In the case of vecuronium at pH 6 and 25° C., the shelf-life of just under 1 week was recorded for both a maleate-TRIS buffer and an HCl-acidified vecuronium solution.

[5] = 25° C. and 40° C. data of Example 1
[6] = with a charged surfactant (sodium glycocholate)

SMILES: CCCCCCCCCCCCCC(=O)OCC(COP(=O)(O)OCC(O)CO)OC(=O)CCCCCCCCCCCCC (stereo not drawn) [DMPG, dimyristoylphosphatidylglycerol]
pKa [1]: approx. 3.0 | pKa ([1]; listed as Dimyristoyl phosphatidylglycerol): about 3.0

SMILES: CC(=O)N[C@@H](Cc1c[nH]c2ccccc12)C(=O)O [N-acetyltryptophan]
effect of the additive on vecuronium solution stability (in words) [2, 5]: performed very poorly at the higher temperature | pKa [1]: 3.4

SMILES: CC(=O)O[C@H]1C[C@@H]2CC[C@@H]3[C@H](CC[C@@]4(C)[C@H]3C[C@H]([N+]3(C)CCCCC3)[C@@H]4OC(C)=O)[C@@]2(C)C[C@@H]1N1CCCCC1 [Vecuronium, vecuronium bromide]
time to first depression of twitch response (twitch response): approximately 1 minute | KQW (cubic-water partition coefficient) [3, 6]: 10,000 | concentration in the aqueous phase [3, 6]: 1 µg/mL | concentration in the cubic phase [3, 6]: 10600 µg/mL | log KQW [3, 6]: +4 | KQW (cubic-water partition coefficient) ([3]; without a charged surfactant): 1,667 | concentration in the aqueous phase ([3]; without a charged surfactant): 6 µg/mL | concentration in the cubic phase ([3]; without a charged surfactant): 10000 µg/mL | log KQW ([3]; without a charged surfactant): +3.2 | shelf-life of solution ([4]; pH 6.0, 4° C.): 5 weeks | shelf-life of solution ([4]; pH 6.0, 25° C.): 1 week | time until potency is reduced to 85% of initial ([4]; control solution at same pH (5.2) and temperature (25° C.)): about 2 weeks | shelf-life ([4]; pH 6, 25° C., both maleate-TRIS buffer and HCl-acidified solution): under 1 week

effect of the additive on vecuronium solution stability (in words) [2]: most stable solutions
SMILES: O=S(=O)(O)c1ccccc1 [benzenesulfonic, benzenesulfonic acid]

SMILES: C[C@H](CCC(=O)O)[C@H]1CC[C@H]2[C@@H]3CC[C@@H]4C[C@H](O)CC[C@]4(C)[C@H]3C[C@H](O)[C@]12C [deoxycholic acid]
pKa [1]: about 5.7

effect of the additive on vecuronium solution stability (in words) [2]: most stable solutions
SMILES: O=C(O)c1cc(O)ccc1O [gentisic, gentisic acid]

SMILES: C[C@H](CCC(=O)NCC(=O)O)[C@H]1CC[C@H]2[C@@H]3[C@H](O)C[C@@H]4C[C@H](O)CC[C@]4(C)[C@H]3C[C@H](O)[C@]12C [glycocholic, glycocholic acid]
pKa [1]: approximately 3.5 | pKa ([1]; listed as glycocholate): 3.5

SMILES: O=C(O)/C=C\C(=O)O [maleic]
pKa [1]: 3.9

effect of the additive on vecuronium solution stability (in words) [2, 5]: equally bad
SMILES: CCCCCCCC(=O)O [octanoic, Octanoic acid]

effect of the additive on vecuronium solution stability (in words) [2]: most stable solutions
SMILES: O=C1NS(=O)(=O)c2ccccc21 [saccharin]
pKa [1]: 2.0

effect of the additive on vecuronium solution stability (in words) [2]: most stable solutions
SMILES: Cc1ccc(S(=O)(=O)O)cc1 [toluenesulfonic, toluenesulfonic acid]
